# Assays:
# [1] = Solubility by visual inspection (DMSO stock solution and assay medium); format: physicochemical; conditions: assay medium
# Protocol: The SOPs relied on visual inspection for solubility observation. […] The absence of precipitation in the medium was checked pre- and post-incubation (24 hours) by centrifugation of the sample and observation of any precipitation (pellet residue).
# [2] = Solubility by nephelometry (EURL ECVAM); format: physicochemical
# How it was run: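 Turbidity from insolubility detected by laser nephelometry (Tyndall light scatter). Formazin standards at 1, 5, 10 and 20 NTU used to calculate relative turbidity; 1 NTU equals solvent/medium blank background, with sensitivity to 5 NTU.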
# [3] = tested on: HepaRG cells; experiment: Cytotoxicity assay (resazurin) in HepaRG cells, 48 hours; format: cell-based, human; conditions: viability reduction <10%
# Protocol: (§1) Potential cytotoxicity of the validation set chemicals for PHH and HepaRG cells was determined starting from the highest soluble concentration, followed by a 1:1 or 1:3 dilution for PHH and HepaRG cells, respectively. The incubation time reflected the conditions used for the induction assays (72 hours and 48 hours of incubation for PHH and HepaRG cells, respectively). The cytotoxicity assay was based on the conversion of redox dye resazurin to fluorescent resorufin by living cells. Non-viable cells, without metabolic capacity, yield no fluorimetry signal.
# (§2) Results were expressed as fractional survival (FS %) with respect to untreated controls and were calculated based on measured relative fluorescent units (RFU), corrected for the background signal: %FS=RFUtreated cells−meanRFUbackground/RFUuntreated cells−meanRFUbackgroundx100
# (§3) Cytotoxicity was evaluated from the dose-response curve, where the mean FS (%) of three technical replicates was plotted versus the corresponding concentration.
# (§4) The SOP acceptance criteria required a cell viability of 50-70 % for doxorubicin (8 μM, HepaRG cells) and ≤70 % for chlorpromazine (25 μM, PHH), the cytotoxicity reference items. The highest concentration with viability reduction <20% (PHH) or <10% (HepaRG) was eligible as starting concentration for the induction assay.
# [4] = tested on: PHH; experiment: Cytotoxicity assay (resazurin) in PHH, 72 hours; format: cell-based, human; conditions: viability reduction <20%
# Protocol: as §1, §2, §3, §4
# [5] = tested on: CYP1A2; conditions: human in vivo; CYP named without remark = induced; ref references in the cell, Washington University database, Hoffmann et al. (2014), Pelkonen et al. (2008), Hukkanen et al. (2012); cited from earlier work
# [6] = tested on: CYP; conditions: CYP isoforms induced; ref Abadie et al. (2009), Richert et al. (2010), Preissner et al. (2010), Hoffmann et al. (2014); cited from earlier work
smiles,measurement,setting,value
OCc1c[nH]c2ccccc12 [Indole-3-carbinol],HepaRG medium stability,"[1]; Lab 1, visual observation",5 µg/mL
same,HepaRG medium stability,"[1]; Lab 2, visual observation",10 µg/mL
same,HepaRG medium stability,"[1]; Lab 3, visual observation",10 µg/mL
same,PHH medium stability,"[1]; Lab 4, visual observation",10 µg/mL
same,PHH medium stability,"[1]; Lab 5, visual observation",20 µg/mL
same,PHH medium stability,"[1]; Lab 6, visual observation",20 µg/mL
same,nephelometry finding in assay medium,"[2]; 40 μg/ml, the two media",insoluble suspensions
same,HepaRG medium stability,"[2]; ECVAM nephelometry, HepaRG medium, ^2 = solubility limit",10^2 μg/mL
same,PHH medium stability,"[2]; ECVAM nephelometry, PHH medium, ^2 = solubility limit",10^2 μg/mL
same,"highest soluble non cytotoxic concentration used for the subsequent induction assay, HepaRG",[3],insoluble (excluded)
same,"highest soluble non cytotoxic concentration used for the subsequent induction assay, PHH",[4],insoluble (excluded)
same,CYP induction in vivo literature reference: CYP1A2,[5],"CYP 1A2 ([Reed et al., 2005]) CYP2B6/CYP3A4 NO studies"
same,CYP induction in vitro (human hepatocytes),[6],CYP1A2
